Where “and” joins values, the source holds several entries; their conditions need not be identical. Equal values may be shown once. Read-outs that look alike come from different tables or passages of the source.
How the values were obtained:
serum proteins = test: Amerlex free T4 radioimmunoassay: Bo value with added blocking agent; type: binding
[1] = target: thyroxine binding prealbumin (TBPA) (Homo sapiens, UniProt P02766); conditions: in body fluids; cited from earlier work
natural protein binders = conditions: in body fluids; cited from earlier work
[2] = target: T1, thyroxine binding globulin (TBG) (Homo sapiens, UniProt P05543); conditions: in body fluids; cited from earlier work
T1 sequence (P05543 21-415): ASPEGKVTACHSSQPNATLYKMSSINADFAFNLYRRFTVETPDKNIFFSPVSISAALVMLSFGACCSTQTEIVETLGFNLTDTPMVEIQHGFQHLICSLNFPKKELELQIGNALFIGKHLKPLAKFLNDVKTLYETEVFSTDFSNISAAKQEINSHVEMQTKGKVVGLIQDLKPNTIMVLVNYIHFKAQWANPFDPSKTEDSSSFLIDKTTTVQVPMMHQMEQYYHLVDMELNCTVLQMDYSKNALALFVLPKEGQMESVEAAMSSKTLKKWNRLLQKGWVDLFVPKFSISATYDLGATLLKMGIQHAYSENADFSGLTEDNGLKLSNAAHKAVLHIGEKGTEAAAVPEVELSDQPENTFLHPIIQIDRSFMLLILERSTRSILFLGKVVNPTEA

albumin (Alb) = albumin (Alb) (Homo sapiens, UniProt P02768); conditions: cited from earlier work
Sequence of albumin (Alb) (P02768 25-609): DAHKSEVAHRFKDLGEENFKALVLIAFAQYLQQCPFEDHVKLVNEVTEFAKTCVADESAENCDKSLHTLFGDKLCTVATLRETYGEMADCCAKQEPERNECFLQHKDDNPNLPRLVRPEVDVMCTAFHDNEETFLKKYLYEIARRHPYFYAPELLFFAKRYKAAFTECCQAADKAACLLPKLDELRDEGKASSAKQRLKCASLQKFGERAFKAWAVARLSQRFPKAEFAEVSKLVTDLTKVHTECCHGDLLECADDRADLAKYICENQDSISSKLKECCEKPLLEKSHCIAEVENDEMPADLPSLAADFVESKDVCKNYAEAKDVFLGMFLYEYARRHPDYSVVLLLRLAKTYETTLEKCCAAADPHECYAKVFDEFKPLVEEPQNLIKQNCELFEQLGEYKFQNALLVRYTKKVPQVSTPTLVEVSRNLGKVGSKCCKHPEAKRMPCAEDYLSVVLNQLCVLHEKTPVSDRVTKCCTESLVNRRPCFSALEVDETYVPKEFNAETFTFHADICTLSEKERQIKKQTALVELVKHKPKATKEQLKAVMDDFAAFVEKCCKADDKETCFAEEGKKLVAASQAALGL

[3] = blocking agent 10^-2 M, no addition: 67.7
[4] = blocking agent 10^-3 M, no addition: 67.7

O=C(O)c1c(O)cccc1O [Gamma resorcylate, sodium gamma-resorcylate (2,6-dihydroxybenzoate)]
Bo (% tracer bound) (serum proteins; [3]): 51.6%
Bo (% tracer bound) (serum proteins; [4]): 70.3%

N[C@@H](Cc1cc(I)c(Oc2cc(I)c(O)c(I)c2)c(I)c1)C(=O)O [T4, Thyroxine]
share of the bound fraction bound to TBPA [1]: 20%
bound to natural protein binders (natural protein binders): 99.97%
share of the bound fraction bound to TBG [2]: 70%

O=C(O)c1cc(O)ccc1O [Gentisate, sodium gentisate (2,5-dihydroxybenzoate)]
Bo (% tracer bound) (serum proteins; [3]): 71.8%
Bo (% tracer bound) (serum proteins; [4]): 70.5%

O=[N+]([O-])c1ccc(O)c([N+](=O)[O-])c1 [2,4-dinitrophenol]
Bo (% tracer bound) (serum proteins; [4]): 60.0%

NC(=O)c1ccccc1O [Salicylamide, salicylamide]
Bo (% tracer bound) (serum proteins; [3]): 43.0%
Bo (% tracer bound) (serum proteins; [4]): 67.5%

O=C([O-])c1ccccc1O.[Na+] [Salicylate, sodium salicylate]
Bo (% tracer bound) (serum proteins): 72.6% and 69.5%

N[C@@H](Cc1cc(I)c(Oc2ccc(O)c(I)c2)c(I)c1)C(=O)O [T3, Tri-iodothyronine]
share of the bound fraction bound to TBPA [1]: 15%
in free form (natural protein binders): 0.3%
share of the bound fraction bound to Alb (albumin (Alb)): 25%
share of the bound fraction bound to TBG [2]: 60%

O=C(O)c1cc(S(=O)(=O)O)ccc1O [SSA, 5-sulphosalicylic acid]
Bo (% tracer bound) (serum proteins; SSA 1x10^-2 M, no SSA: 65): 82.5%
Bo (% tracer bound) (serum proteins; SSA 1x10^-3 M, no SSA: 65): 74%
Bo (% tracer bound) (serum proteins; SSA 2x10^-2 M, T4-analogue tracer bound to antiserum at zero T4, no SSA: 65): 82%
Bo (% tracer bound) (serum proteins; SSA 2x10^-3 M, no SSA: 65): 80%
Bo (% tracer bound) (serum proteins; SSA 2x10^-4 M, no SSA: 65): 68%
Bo (% tracer bound) (serum proteins; SSA 5x10^-3 M, no SSA: 65): 78%
Bo (% tracer bound) (serum proteins; SSA 5x10^-4 M, no SSA: 65): 72%
Bo (% tracer bound) (serum proteins; SSA 5x10^-5 M, no SSA: 65): 66%
